# Marks after values point to notes of the source that are not given here.
# B1: G glycoprotein: purified G glycoprotein isolated from RSV/A2-infected Vero cells (protein)
# chain: MSKNKDQRTAKTLERTWDTLNHLLFISSCLYKLNLKSVAQITLSILAMIISTSLIIAAIIFIASANHKVTPTTAIIQDATSQIKNTTPTYLTQNPQLGISPSNPSEITSQITTILASTTPGVKSTLQSTTVKTKNTTTTQTQPSKPTTKQRQNKPPSKPNNDFHFEVFNFVPCSICSNNPTCWAICKRIPNKKPGKKTTTKPTKKPTLKTTKKDPKPQTTKSKEVPTTKPTEEPTINTTKTNIITTLLTSNTTGNPELTSQMETFHSTSSEGNPSPSQVSTTSEYPSQPSSPPNTPRQ
# Key:
# [1] = system: cell trafficking to the lung (BAL cells); test: In vivo cell trafficking to the lung of naïve mice after intranasal treatment; design: species or system BALB/c mice; settings: for Percentage of cells from BAL determined by flow cytometry: B220 / Percentage of cells from BAL determined by flow cytometry: CD4 / Percentage of cells from BAL determined by flow cytometry: CD8 / Percentage of cells from BAL determined by flow cytometry: CD11b / Percentage of cells from BAL determined by flow cytometry: DX5 / Percentage of cells from BAL determined by flow cytometry: RB6-8C5 / Percentage of cells from BAL determined by H&E stain: Eosinophil / Percentage of cells from BAL determined by H&E stain: Lymphocyte / Percentage of cells from BAL determined by H&E stain: Macrophage / Percentage of cells from BAL determined by H&E stain: PMN: day 2 post-treatment; for Percentage of cells from BAL determined by flow cytometry: B220 / Percentage of cells from BAL determined by flow cytometry: CD4 / Percentage of cells from BAL determined by flow cytometry: CD8: lymphocyte gate; for Percentage of cells from BAL determined by flow cytometry: CD11b / Percentage of cells from BAL determined by flow cytometry: DX5 / Percentage of cells from BAL determined by flow cytometry: RB6-8C5: ungated events; for Percentage of cells from BAL determined by H&E stain: Eosinophil / Percentage of cells from BAL determined by H&E stain: Lymphocyte / Percentage of cells from BAL determined by H&E stain: Macrophage / Percentage of cells from BAL determined by H&E stain: PMN / mean BAL cell numbers (±SEM) recovered: naïve BALB/c mice; for Percentage of cells from BAL determined by H&E stain: Eosinophil / Percentage of cells from BAL determined by H&E stain: Lymphocyte / Percentage of cells from BAL determined by H&E stain: Macrophage / Percentage of cells from BAL determined by H&E stain: PMN: i.n. 1 μM, median ± SE; for mean BAL cell numbers (±SEM) recovered: intranasal 1 μM, 48 hours post-treatment
# Description: FIG. 5A is a bar graph showing leukocyte chemotaxis toward G glycoprotein or fractalkine (Fkn) in the presence or absence of anti-CX3CR1 antibody or normal rabbit sera. The chemotactic index determined from the fold increase of murine leukocyte migration toward the chemoattractant (e.g., Fkn or G glycoprotein) over the leukocyte migration toward the media alone control using modified Boyden chambers. Fkn, G glycoprotein, […] (10 μg) or normal rabbit sera (10 μg) was added to the upper chamber to examine antagonism of cell migration toward the chemoattractant in the lower chamber. FIG. 5B is a bar graph showing cell trafficking to the lung of naïve BALB/c mice intranasally treated with G glycoprotein, fractalkine or G glycoprotein peptides RT32, RT33 or RT34. BAL cells were fixed and stained with H&E. Cell subsets were determined as a percentage of the total BAL cells counted from >200 cells/slide counting two slides for each experiment. The percent cell type represents the median±SE from three separate experiments. * indicates significant difference compared to tissue culture media alone (p<0.05). Naïve BALB/c mice were i.n. treated with 1 μM G glycoprotein or fractalkine or with 1 μM G glycoprotein peptides. The BAL was collected 2 days post-treatment for analysis.
# Cell trafficking to the lung in naïve and FI-RSV-immune BALB/c mice was examined following intranasal treatment with either 1 μM fractalkine, RSV G glycoprotein or RSV G peptides. All mice were females purchased from Harlan Sprague Dawley (Indianapolis, Ind.) and maintained at the Centers for Disease Control and Prevention in Atlanta, Ga. FI-RSV-immune mice were immunized in the superficial gluteal muscle using 10^6 pfu equivalents of FI-RSV in accordance with methods known to those skilled in the art. Mice were anesthetized with 2,2,2,-tribromoethanol and intranasally treated with 0.05 ml of either fractalkine, RSV G glycoprotein or peptide diluted in PBS (GIBCO). At day two post-treatment, the mice were anesthetized, exsanguinated by severing the right caudal artery, and the bronchoalveolar (BAL) cells collected in PBS containing 1% BSA (Sigma). BAL cells were blocked with 10% normal mouse sera (Jackson Laboratories, Bar Harbor, Me.) in PBS, and then stained with the appropriate combinations of FITC- or PE-labeled anti-CD3 (145-2C11), anti-CD4 (GK1.5), anti-CD8 (53-6.7), anti-CD11b (M1/70), anti-CD45R/B220 (RA3-6B2), anti-pan NK cell (DX5), anti-neutrophil (RB6-8C5), and mouse isotype Ab controls (all from PharMingen, San Diego, Calif.). The distribution of cell surface markers was determined in two-color mode on a FACScan with CellQUEST software (Becton-Dickinson, Mountain View, Calif.).
# CD3+ BAL cells = test: Intracellular cytokine expression by CD3+ T cells following in vivo peptide treatment; design: species or system BALB/c mice
# Description: On day −1, prior to RSV infection, mice were i.p. treated (0.1 ml/mouse) with 100 μM of G glycoprotein peptides RT33 (CWAIC) (SEQ ID NO: 12), RT34 (lacks the CX3C motif) or peptides with changes in the CX3C motif (Δ+1, Δ−1, EYp1). Control mice were treated with PBS containing a similar dilution of DMSO used to solubilize the peptides.
# Intracellular cytokine staining was modified for microculture staining as described (55, 57). Briefly, BAL cells were incubated in PBS containing Golgi Stop (Pharmingen) for 3 h at 37° C. to allow for accumulation of intracellular cytokines. The cells were washed in PBS containing 1% bovine serum albumin, blocked with 10% normal mouse sera diluted in PBS containing 1% bovine serum albumin, and stained (4° C., 30 min) with an appropriate dilution of anti-CD3 antibody, fixed and permeabilized in Cytofix/Cytoperm (Pharmingen). The cells were washed in Cytofix/Cytoperm buffer and stained (4° C., 30 min) with appropriate dilutions of anti-IL-2 (JES6-5H4), anti-IL-4 (BVD4-1D11), anti-IL-5 (TRFK5), IL-10 (JES3-16E3), anti-IFNγ (XMG1.2), or anti-TNFα (MP6-XT22) antibodies (Pharmingen) diluted in Cytofix/Cytoperm. Extra- and intracellular staining was analyzed by flow cytometry using a FACScan and Cell Quest software (Becton Dickinson, San Diego, Calif.). Total cytokine expression by CD3+ T cells was determined from the percent cytokine expression of CD3+ T cells and total number of cells recovered. The total number of CD3+ BAL cells expressing a particular cytokine was determined by multiplying the total number of BAL cells by the percent CD3+ cells expressing that particular cytokine.
molecule,measurement,setting,value
"Fkn: CX3C chemokine fractalkine (R&D), ligand of CX3CR1 [reference compound]",Percentage of cells from BAL determined by flow cytometry: B220,[1],6 ± 2%
same,Percentage of cells from BAL determined by flow cytometry: CD4,[1],16 ± 4%
same,Percentage of cells from BAL determined by flow cytometry: CD8,[1],6 ± 2%
same,Percentage of cells from BAL determined by flow cytometry: CD11b,[1],12 ± 4%
same,Percentage of cells from BAL determined by flow cytometry: DX5,[1],17 ± 8%
same,Percentage of cells from BAL determined by flow cytometry: RB6-8C5,[1],10 ± 6%
same,Percentage of cells from BAL determined by H&E stain: Eosinophil,[1],0 ± 0%
same,Percentage of cells from BAL determined by H&E stain: Lymphocyte,[1],10 ± 3%
same,Percentage of cells from BAL determined by H&E stain: Macrophage,[1],71 ± 10%
same,Percentage of cells from BAL determined by H&E stain: PMN,[1],16 ± 5%
same,mean BAL cell numbers (±SEM) recovered,[1],3.8 (±0.6) ×10^5 cells/ml
TCWAICKRIPNK [RT33],Percentage of cells from BAL determined by flow cytometry: B220,[1],4 ± 2%
same,Percentage of cells from BAL determined by flow cytometry: CD4,[1],10 ± 2%
same,Percentage of cells from BAL determined by flow cytometry: CD8,[1],4 ± 2%
same,Percentage of cells from BAL determined by flow cytometry: CD11b,[1],10 ± 4%
same,Percentage of cells from BAL determined by flow cytometry: DX5,[1],10 ± 2%
same,Percentage of cells from BAL determined by flow cytometry: RB6-8C5,[1],12 ± 2%
same,Percentage of cells from BAL determined by H&E stain: Eosinophil,[1],0 ± 0%
same,Percentage of cells from BAL determined by H&E stain: Lymphocyte,[1],4 ± 2%
same,Percentage of cells from BAL determined by H&E stain: Macrophage,[1],76 ± 8%
same,Percentage of cells from BAL determined by H&E stain: PMN,[1],16 ± 6%
same,mean BAL cell numbers (±SEM) recovered,[1],3.5 (±0.3) ×10^5 cells/ml
same,Total IC cytokine Expressing CD3^+ BAL cells (×10^3) ± SEM: IFNγ,CD3+ BAL cells; day 3 pi,24 ± 5.6 ×10^3
same,Total IC cytokine Expressing CD3^+ BAL cells (×10^3) ± SEM: IL-4,CD3+ BAL cells; day 3 pi,24 ± 6.0 ×10^3
same,Total IC cytokine Expressing CD3^+ BAL cells (×10^3) ± SEM: IL-5,CD3+ BAL cells; day 3 pi,22 ± 5.6 ×10^3
same,Total IC cytokine Expressing CD3^+ BAL cells (×10^3) ± SEM: IL-6,CD3+ BAL cells; day 3 pi,27 ± 6.8 ×10^3
same,Total IC cytokine Expressing CD3^+ BAL cells (×10^3) ± SEM: TNFα,CD3+ BAL cells; day 3 pi,28 ± 7.0 ×10^3
same,Total IC cytokine Expressing CD3^+ BAL cells (×10^3) ± SEM: IL-2,"CD3+ BAL cells; day 3 pi, peptide 24 hours prior to RSV infection",26 ± 6.5^c ×10^3
same,Total IC cytokine Expressing CD3^+ BAL cells (×10^3) ± SEM: IFNγ,CD3+ BAL cells; day 5 pi,8.0 ± 1.0 ×10^3
same,Total IC cytokine Expressing CD3^+ BAL cells (×10^3) ± SEM: IL-2,CD3+ BAL cells; day 5 pi,9.0 ± 1.1 ×10^3
same,Total IC cytokine Expressing CD3^+ BAL cells (×10^3) ± SEM: IL-4,CD3+ BAL cells; day 5 pi,11 ± 1.3 ×10^3
same,Total IC cytokine Expressing CD3^+ BAL cells (×10^3) ± SEM: IL-5,CD3+ BAL cells; day 5 pi,12 ± 1.5 ×10^3
same,Total IC cytokine Expressing CD3^+ BAL cells (×10^3) ± SEM: IL-6,CD3+ BAL cells; day 5 pi,9.0 ± 1.2 ×10^3
same,Total IC cytokine Expressing CD3^+ BAL cells (×10^3) ± SEM: TNFα,CD3+ BAL cells; day 5 pi,9.0 ± 1.1 ×10^3
same,Total IC cytokine Expressing CD3^+ BAL cells (×10^3) ± SEM: IFNγ,CD3+ BAL cells; day 7 pi,3.6 ± 0.5 ×10^3
same,Total IC cytokine Expressing CD3^+ BAL cells (×10^3) ± SEM: IL-2,CD3+ BAL cells; day 7 pi,2.4 ± 0.3 ×10^3
same,Total IC cytokine Expressing CD3^+ BAL cells (×10^3) ± SEM: IL-4,CD3+ BAL cells; day 7 pi,2.3 ± 0.3 ×10^3
same,Total IC cytokine Expressing CD3^+ BAL cells (×10^3) ± SEM: IL-5,CD3+ BAL cells; day 7 pi,5.2 ± 0.7 ×10^3
same,Total IC cytokine Expressing CD3^+ BAL cells (×10^3) ± SEM: IL-6,CD3+ BAL cells; day 7 pi,5.8 ± 0.8 ×10^3
same,Total IC cytokine Expressing CD3^+ BAL cells (×10^3) ± SEM: TNFα,CD3+ BAL cells; day 7 pi,13 ± 0.8 ×10^3
same,Total IC cytokine Expressing CD3^+ BAL cells (×10^3) ± SEM: IFNγ,CD3+ BAL cells; day 14 pi,6.5 ± 2.1 ×10^3
same,Total IC cytokine Expressing CD3^+ BAL cells (×10^3) ± SEM: IL-2,CD3+ BAL cells; day 14 pi,3.0 ± 1.0 ×10^3
same,Total IC cytokine Expressing CD3^+ BAL cells (×10^3) ± SEM: IL-4,CD3+ BAL cells; day 14 pi,8.2 ± 2.7 ×10^3
same,Total IC cytokine Expressing CD3^+ BAL cells (×10^3) ± SEM: IL-5,CD3+ BAL cells; day 14 pi,5.3 ± 1.7 ×10^3
same,Total IC cytokine Expressing CD3^+ BAL cells (×10^3) ± SEM: IL-6,CD3+ BAL cells; day 14 pi,4.7 ± 1.5 ×10^3
same,Total IC cytokine Expressing CD3^+ BAL cells (×10^3) ± SEM: TNFα,CD3+ BAL cells; day 14 pi,8.7 ± 2.6 ×10^3
VPCSICSNNPTC [RT32],Percentage of cells from BAL determined by flow cytometry: B220,[1],3 ± 2%
same,Percentage of cells from BAL determined by flow cytometry: CD4,[1],2 ± 2%
same,Percentage of cells from BAL determined by flow cytometry: CD8,[1],2 ± 2%
same,Percentage of cells from BAL determined by flow cytometry: CD11b,[1],3 ± 2%
same,Percentage of cells from BAL determined by flow cytometry: DX5,[1],2 ± 1%
same,Percentage of cells from BAL determined by flow cytometry: RB6-8C5,[1],2 ± 2%
same,Percentage of cells from BAL determined by H&E stain: Eosinophil,[1],0 ± 0%
same,Percentage of cells from BAL determined by H&E stain: Lymphocyte,[1],12 ± 4%
same,Percentage of cells from BAL determined by H&E stain: Macrophage,[1],94 ± 5%
same,Percentage of cells from BAL determined by H&E stain: PMN,[1],2 ± 2%
same,mean BAL cell numbers (±SEM) recovered,[1],2.2 (±0.5) ×10^5 cells/ml
B1,Percentage of cells from BAL determined by flow cytometry: B220,[1],5 ± 4%
same,Percentage of cells from BAL determined by flow cytometry: CD4,[1],8 ± 2%
same,Percentage of cells from BAL determined by flow cytometry: CD8,[1],4 ± 3%
same,Percentage of cells from BAL determined by flow cytometry: CD11b,[1],12 ± 5%
same,Percentage of cells from BAL determined by flow cytometry: DX5,[1],9 ± 6%
same,Percentage of cells from BAL determined by flow cytometry: RB6-8C5,[1],10 ± 4%
same,Percentage of cells from BAL determined by H&E stain: Eosinophil,[1],0 ± 0%
same,Percentage of cells from BAL determined by H&E stain: Lymphocyte,[1],10 ± 3%
same,Percentage of cells from BAL determined by H&E stain: Macrophage,[1],68 ± 10%
same,Percentage of cells from BAL determined by H&E stain: PMN,[1],22 ± 4%
same,mean BAL cell numbers (±SEM) recovered,[1],4.6 (±1.1) ×10^5 cells/ml

# Reference: patent US8173131B2, “Compositions and methods for modulating RSV infection and immunity” (PerkinElmer Health Sciences, Inc., priority 2000, dated 2012)
